Assay results reported in patent US7897543B2, “Spiroketal-substituted cyclic ketoenols” (Bayer CropScience AG, priority 2005, dated 2011).

Key:
Phaedon cochleariae [1] = experiment: Example N: Phaedon Test (spray treatment); format: in vivo; conditions: application rate 500 g/ha
Method: (§1) [table] To produce a suitable preparation of active compound, 1 part by weight of active compound is mixed with the stated amounts of solvents and emulsifier, and the concentrate is diluted with emulsifier-containing water to the desired concentration. Discs of Chinese cabbage (Brassica pekinensis) are sprayed with a preparation of active compound of the desired concentration and, after drying, populated with larvae of the mustard beetle (Phaedon cochleariae).

[2] = test system: monocotyledonous and dicotyledonous weed and crop plants; experiment: Example V 2: Herbicidal Post-Emergence Action; format: in vivo; conditions: greenhouse, 320 g of a.i./ha, about 3 weeks
Method: (§2) Seeds of monocotyledonous and dicotyledonous weed and crop plants are placed into sandy loam in wood fibre pots, covered with soil and cultivated in a greenhouse under good growth conditions. 2-3 weeks after sowing, the test plants are treated at the one-leaf stage. The test compounds, formulated as wettable powders (WP), are then, in various dosages with a water application rate of 600 l/ha (converted), with 0.2% of wetting agent added, sprayed onto the green parts of the plants. After the test plants have been kept in the greenhouse under optimum growth conditions for about 3 weeks, the effect of the preparations is rated visually in comparison to untreated controls (herbicidal effect in percent (%): 100% effect=the plants have died, 0% effect=like control plants).

Setaria viridis = experiment: Example V 2: Herbicidal Post-Emergence Action; format: in vivo; conditions: greenhouse, 320 g of a.i./ha, about 3 weeks
Method: as §2

Echinocloa crus-galli = experiment: Example V 2: Herbicidal Post-Emergence Action; format: in vivo; conditions: greenhouse, 320 g of a.i./ha, about 3 weeks
Method: as §2

Lolium multiflorum = experiment: Example V 2: Herbicidal Post-Emergence Action; format: in vivo; conditions: greenhouse, 320 g of a.i./ha, about 3 weeks
Method: as §2

Nephotettix cincticeps = experiment: Example F: Nephotettix Test (7:1); format: in vivo; conditions: concentration of 1000 ppm
Method: (§3) To produce a suitable preparation of active compound, 1 part by weight of active compound is mixed with the stated amounts of solvent and emulsifier, and the concentrate is diluted with emulsifier-containing water to the desired concentration.
Rice seedlings (Oryza sativa) are treated by being dipped into the preparation of active compound of the desired concentration and are populated with the green rice leaf hopper (Nephotettix cincticeps) while the leaves are still moist.
After the desired period of time, the kill in % is determined. 100% means that all leaf hoppers have been killed; 0% means that none of the leaf hoppers have been killed.

Plutella xylostella = experiment: Example D: Plutella Test (7:1); format: in vivo; conditions: concentration of 1000 ppm
Method: as §3
Cabbage leaves (Brassica oleracea) are treated by being dipped into the preparation of active compound of the desired concentration and are populated with caterpillars of the diamond back moth (Plutella xylostella) while the leaves are still moist.
After the desired period of time, the kill in % is determined. 100% means that all caterpillars have been killed; 0% means that none of the caterpillars have been killed.

Meloidogyne incognita [3] = experiment: Example H: Meloidogyne Test (7:1); format: in vivo; conditions: concentration of 20 ppm
Method: (§4) To produce a suitable preparation of active compound, 1 part by weight of active compound is mixed with the stated amounts of solvent and emulsifier, and the concentrate is diluted with water to the desired concentration.
(§5) Vessels are filled with sand, solution of active compound, Meloidogyne incognita egg/larvae suspension and lettuce seeds. The lettuce seeds germinate and the plants develop. On the roots, galls are formed.
(§6) After the desired period of time, the nematicidal activity is determined in % by the formation of galls. 100% means that no galls have been found; 0% means that the number of galls on the treated plants corresponds to that of the untreated control.

Test plants = experiment: Example U: Pre-emergence Test; format: in vivo; conditions: greenhouse, 250 g of a.i./ha, after three weeks
Method: To produce a suitable preparation of active compound, 1 part by weight of active compound is mixed with the stated amount of solvent, the stated amount of emulsifier is added and the concentrate is diluted with water to the desired concentration.
Seeds of the test plants are sown in normal soil. After about 24 hours, the soil is sprayed with the preparation of active compound such that the particular amounts of active compound desired are applied per unit area. The concentration of the spray liquor is chosen such that the particular amounts of active compound desired are applied in 1000 l of water/ha.
After three weeks, the degree of damage to the plants is rated in % damage in comparison to the development of the untreated control.
The figures denote: • 0%=no effect (like untreated control) • 100%=total destruction

Meloidogyne incognita [4] = experiment: Example K: Meloidogyne Test; format: in vivo; conditions: concentration of 20 ppm
Method: as §4, §5, §6

Meloidogyne incognita [5] = experiment: Example P: Meloidogyne Test (spray treatment); format: in vivo; conditions: concentration of 20 ppm
Method: To produce a suitable preparation of active compound, 1 part by weight of active compound is mixed with the stated amount of solvent, and the concentrate is diluted with water to the desired concentration.
as §5, §6

Phaedon cochleariae [6] = experiment: Example M: Phaedon cochleariae Larvae Test; format: in vivo; conditions: concentration of 100 ppm
Method: as §1, with “solvent” for “solvents”, “Cabbage leaves” for “Discs of Chinese cabbage”, “oleracea)” for “pekinensis)”, “treated by being dipped into the” for “sprayed with a”, “and are” for “and, after drying,”, “cochleariae) while the leaves are still moist.” for “cochleariae).”

cereal crop plants = experiment: Profiling tests, herbicidal post-emergence action with safeners: container trials with cereal in a greenhouse, Mefenpyr 1 day prior to herbicide application; conditions: in vivo
Method: Test Description for Profiling Tests
2. Herbicidal Post-Emergence Action
Seeds of monocotyledonous and dicotyledonous weed and crop plants are placed into sandy loam in wood fibre pots or in plastic pots, covered with soil and cultivated in a greenhouse, during the vegetation period also outdoors outside of the greenhouse, under good growth conditions. 2-3 weeks after sowing, the test plants are treated at the one- to three-leaf stage. The test compounds, formulated as wettable powders (WP) or emulsifiable concentrates (EC) are, in various dosages with a water application rate of 300 l/ha (converted), with wetting agent (0.2 to 0.3%) added, sprayed onto the plants and the surface of the soil. […] after the treatment of the test plants, the effect of the preparations is rated visually in comparison to untreated controls (herbicidal effect in percent (%): 100% effect=the plants have died, 0% effect=like control plants). […]

| Compound | herbicidal effect, Sinapis [2] [%] | herbicidal effect, Setaria (Setaria viridis) [%] | herbicidal effect, Echinochloa (Echinocloa crus-galli) [%] | herbicidal effect, Lolium (Lolium multiflorum) [%] | also measured |
| --- | --- | --- | --- | --- | --- |
| Cc1cc(C)c(C2=C(O)C3(CCC4(CC3)OC(C)C(C)O4)NC2=O)c(C)c1 (mixture of isomers) [Ex. I-1-a-7] | 60 | 80 | 60 | 80 | activity in % (Phaedon cochleariae [1]): 100% |
| Cc1cc(C)c(C2=C(O)C3(CCC4(CC3)OC(C)CC(C)O4)NC2=O)c(C)c1 (mixture of isomers) [Ex. I-1-a-21] | 70 | 90 | 80 | 80 | – |
| CCOC(=O)OC1=C(c2c(C)cc(C)cc2C)C(=O)NC12CCC1(CC2)OCC(C)O1 (mixture of isomers) [Ex. I-1-c-6] | 60 | 90 | 80 | 90 | activity in % (Phaedon cochleariae [1]): 100% |
| Cc1cc(C)c(C2=C(O)C3(CCC4(CC3)OCCO4)NC2=O)c(C)c1 [Ex. I-1-a-2] | 60 | 90 | 80 | 70 | activity (kill in %) (Nephotettix cincticeps): 100%; activity (kill in %) (Plutella xylostella): 100% |
| Cc1cc(Cl)cc(C)c1C1=C(O)C2(CCC3(CC2)OCCO3)NC1=O [Ex. I-1-a-4] | – | – | – | – | nematicidal activity in % (formation of galls) (Meloidogyne incognita [3]): 95%; damage, Amaranthus (Test plants; sub-table 1): 95%; damage, Echinochloa (Test plants; sub-table 1): 100%; damage, Galium (Test plants; sub-table 1): 70%; damage, Setaria (Test plants; sub-table 1): 100%; damage, Sinapis (Test plants; sub-table 1): 70% |
| Cc1ccc(C)c(C2=C(O)C3(CCC4(CC3)OCCCO4)NC2=O)c1 [Ex. I-1-a-12] | – | – | – | – | nematicidal activity in % (formation of galls) (Meloidogyne incognita [4]): 80% |
| O=C1NC2(CCC3(CC2)OCCCO3)C(O)=C1c1cc(-c2ccc(Cl)cc2)ccc1Cl [Ex. I-1-a-15] | – | – | – | – | nematicidal activity in % (formation of galls) (Meloidogyne incognita [5]): 100%; damage, Sugar beet (Test plants; crop plant, sub-table 3): 0%; damage, Alopecurus (Test plants; sub-table 3): 95%; damage, Avena fatua (Test plants; sub-table 3): 80%; damage, Echinochloa (Test plants; sub-table 3): 99%; damage, Setaria (Test plants; sub-table 3): 70% |
| Cc1cc(C)c(C2=C(O)C3(CCC4(CC3)OCCCO4)NC2=O)c(C)c1 [Ex. I-1-a-18] | – | 100 | 90 | 80 | activity in % (Phaedon cochleariae [1]): 100% |
| Cc1cc(Br)cc(C)c1C1=C(O)C2(CCC3(CC2)OCCCO3)NC1=O [Ex. I-1-a-19] | 70 | 90 | 90 | 90 | – |
| Cc1cc(C)c(C2=C(O)C3(CCC4(CC3)OCC(C)(C)CO4)NC2=O)c(C)c1 [Ex. I-1-a-23] | – | – | – | – | activity (kill in %) (Phaedon cochleariae [6]): 100% |
| CCOC(=O)OC1=C(c2c(CC)cc(Cl)cc2OC)C(=O)NC12CCC1(CC2)OCCO1 [Ex. I-1-c-25] | – | – | – | – | Summer barley observed (%) (cereal crop plants): 50% |
| Cc1cc(C)c(C2=C(O)C3(CCC4(CC3)OCCO4)OC2=O)c(C)c1 [Ex. I-2-a-2] | 70 | 100 | 80 | 90 | activity (kill in %) (Nephotettix cincticeps): 100%; activity (kill in %) (Plutella xylostella): 100%; herbicidal effect, Amaranthus [2]: 60% |
| Cc1cc(Cl)cc(C)c1C1=C(O)C2(CCC3(CC2)OCCCO3)OC1=O [Ex. I-2-a-6] | 60 | 80 | 60 | 80 | – |
| Cc1cc(C)c(C2=C(OC(=O)C(C)(C)C)C3(CCC4(CC3)OCCO4)OC2=O)c(C)c1 [Ex. I-2-b-2] | – | – | – | – | activity (kill in %) (Nephotettix cincticeps): 100%; activity (kill in %) (Plutella xylostella): 100% |
